Assays:
[1] = test system: whole knee joints of Has1KO mice with patellar groove cartilage injury; assay: Whole joint gene expression (TAQMAN qPCR, RT2 Profiler NF-κB and Fibrosis arrays) after cartilage injury; type: in vivo
Method: (§1) Under approved IACUC protocols, a confined non-bleeding cartilage injury was created in the patellar groove of the right legs of 12-wk old male WT and Has1KO (C57Bl6) mice. Pirfenidone was provided in the chow (5 mg/g, Harlan) starting 3 days after surgery, and mice ingested about 600 mg pirfenidone/kg body weight daily. Joint tissue pathology was evaluated by photography of joint tissue surfaces after India Ink application (FIG. 1) and by histology of the intact joint with Safranin-O and Masson's Trichrome stained sections (FIG. 2.) For gene expression studies, skin and muscle was removed and whole knee joints were stored in RNALater. Inventoried TAQMAN® probes for Gapdh, Has2, Tnfaip6, Col1a1, Col3a1 and Vcan V2 were used to measure expression at 0, 7, 14, and 28 days post-injury, and Qiagen RT2 Profiler PCR Assay mouse arrays for NF-κB (PAMM-225ZA) and Fibrosis (PAMM-120ZA) pathways were used to assay whole joints at 21-28 days after injury, with and without pirfenidone treatment. Relative mRNA abundance was calculated as 1000×2−ΔCt, with ΔCt defined as Ct of the gene of interest minus Ct of Gapdh. Fold change was defined as abundance at a time point divided by abundance in the naïve condition for the same genotype.

[2] = test system: Has1KO mice with patellar groove cartilage injury; assay: Joint tissue pathology by histology (Safranin-O, Masson's Trichrome) after cartilage injury; type: in vivo
Method: as §1
In the same way, the effects on expression of pro-inflammatory and pro-fibrotic genes were accompanied by profound effects on tissue pathology. A histologic examination of sagittal sections across the entire joint was done on 3 mice from each group.

injured Has1KO joints = assay: Micro-computed Tomography of bone structure after cartilage injury; type: in vivo, mice; details: femur posterior to trochlear groove, day 28
Excerpt: The effect of pirfenidone administration on bone structure was examined using Micro-computed Tomography (micro-CT) to identify bone differences (FIG. 7). The regions of interest examined included the trabecular bone in the femur directly posterior to the trochlear groove, where the defect was created (FIG. 8) and the cortical bone of the femoral midshaft (FIG. 9.) The trabecular bone parameters, obtained using micro-CT, indicate a recovery in injured Has1KO joints of bone-to-total volume, connectivity density, trabecular number, trabecular thickness, and trabecular separation to naive levels, surpassing even injured WT in bone recovery, and are shown in FIG. 10.

[3] = 24 day drug treatment post injury
[4] = sagittal sections across entire joint, 3 mice per group

In the case of Cc1ccc(=O)n(-c2ccccc2)c1 [pirfenidone, 5-methyl-1-phenylpyridin-2-one], the “activation of anti-apoptotic, anti-fibrotic and matrix remodeling genes (Sod2, Ccl12, Il13ra2, Serpine1, Timp1)” value [1, 3] is reported as “enhanced”, the “expression of genes in the Nf-κB and Fibrosis pathways (arrays of 84 genes each)” value [1, 3] is reported as “marked effect” and the “expression of genes linked to the aberrant wound healing responses” value ([1]; pirfenidone in chow 5 mg/g (about 600 mg/kg daily) from 3 days after surgery, whole joint) is reported as “normalized”. The “Has2 expression (delayed and more prolonged than in WT)” value ([1]; pirfenidone in chow, whole joint) was “normalized”, the “Tnfaip6 expression (enhanced at 2 weeks in Has1KO)” value ([1]; pirfenidone in chow, whole joint, 2 weeks) was “normalized” and the “Vcan V2 expression (markedly inhibited in Has1KO)” value ([1]; pirfenidone in chow, whole joint, 7 days) was “inhibition was corrected”. For the same molecule, the “loss of cartilage and subchondral bone in the joint after cartilage injury” value ([2]; Has1KO, 4 weeks post-injury, Safranin-O stained) was “reduces”, the “Safranin-O staining in the cartilages (including growth plates)” value [2, 4] was “marked enhancement” and the “appearance of fibrotic tissues” value [2, 4] was “blocked”. The “trabecular bone parameters (bone-to-total volume, connectivity density, trabecular number, thickness, separation)” value (injured Has1KO joints) was “recovery”.

Reference: patent US20170266168A1, “METHODS FOR PREVENTING OR TREATING OSTEOARTHRITIS” (RUSH UNIVERSITY MEDICAL CENTER, priority 2014, published 2017)
